Source: ChEMBL document CHEMBL1201862, “PubChem BioAssay data set” (2004)
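Dose response: 5 concentrations. Exposure: 48 h. Format: 96-well plates. Endpoint: linear interpolation; highest concentration if not reached. At the GI50, growth is halved.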 The source made the active and inactive calls. No stated cut-off is given here; in the data, active = GI50 up to about 1.1 µM and inactive = higher.

Experiments:
Assay in all cases: inhibition of tumour cell growth, NCI panel, 48 h
A549 = system: A549
SF-539 = system: SF-539
SNB-75 = system: SNB-75
DMS-273 = system: DMS-273
RXF 393 = system: RXF 393
NCI-H23 = system: NCI-H23
SF-268 = system: SF-268
OVCAR-5 = system: OVCAR-5
EKVX = system: EKVX
SK-MEL-2 = system: SK-MEL-2
NCI-H460 = system: NCI-H460
MOLT-4 = system: MOLT-4
HL-60 = system: HL-60
HCC 2998 = system: HCC 2998
RPMI-8226 = system: RPMI-8226
NCI-H522 = system: NCI-H522
SK-MEL-28 = system: SK-MEL-28
DLD-1 = system: DLD-1
UACC-257 = system: UACC-257
TK-10 = system: TK-10
SW-620 = system: SW-620
SK-MEL-5 = system: SK-MEL-5
UO-31 = system: UO-31
LOX IMVI = system: LOX IMVI
OVCAR-3 = system: OVCAR-3
U-251 = system: U-251
M19-MEL = system: M19-MEL
OVCAR-4 = system: OVCAR-4
NCI-H226 = system: NCI-H226
HT-29 = system: HT-29
SN12C = system: SN12C
LXFL 529 = system: LXFL 529
CAKI-1 = system: CAKI-1
KM12 = system: KM12
K562 = system: K562
UACC-62 = system: UACC-62
SNB-78 = system: SNB-78
OVCAR-8 = system: OVCAR-8
XF498 = system: XF498
HOP-92 = system: HOP-92
HCT-116 = system: HCT-116
SNB-19 = system: SNB-19
HOP-18 = system: HOP-18
IGROV-1 = system: IGROV-1
COLO 205 = system: COLO 205
SR = system: SR
HOP-62 = system: HOP-62
KM-20L2 = system: KM-20L2
SK-OV-3 = system: SK-OV-3
M14 = system: M14
786-0 = system: 786-0
CCRF-CEM = system: CCRF-CEM
SF-295 = system: SF-295
ACHN = system: ACHN
A498 = system: A498
DMS-114 = system: DMS-114
HCT-15 = system: HCT-15
Malme-3M = system: Malme-3M

Compound: O=C(NC1C=CCC2C(=O)N(c3ccccc3)C(=O)C12)OCc1ccccc1 (centres undefined)
- GI50 (A549): > 100 µM (inactive)
- GI50 (SF-539): > 100 µM (inactive)
- GI50 (SNB-75): > 100 µM (inactive)
- GI50 (DMS-273): > 100 µM (inactive)
- GI50 (RXF 393): > 100 µM (inactive)
- GI50 (NCI-H23): > 100 µM (inactive)
- GI50 (SF-268): > 100 µM (inactive)
- GI50 (OVCAR-5): 97.3 µM (inactive)
- GI50 (EKVX): > 100 µM (inactive)
- GI50 (SK-MEL-2): 57.7 µM (inactive)
- GI50 (NCI-H460): > 100 µM (inactive)
- GI50 (MOLT-4): > 100 µM (inactive)
- GI50 (HL-60): > 100 µM (inactive)
- GI50 (HCC 2998): > 100 µM (inactive)
- GI50 (RPMI-8226): > 100 µM (inactive)
- GI50 (NCI-H522): > 100 µM (inactive)
- GI50 (SK-MEL-28): > 100 µM (inactive)
- GI50 (DLD-1): > 100 µM (inactive)
- GI50 (UACC-257): > 100 µM (inactive)
- GI50 (TK-10): > 100 µM (inactive)
- GI50 (SW-620): > 100 µM (inactive)
- GI50 (SK-MEL-5): > 100 µM (inactive)
- GI50 (UO-31): > 100 µM (inactive)
- GI50 (LOX IMVI): > 100 µM (inactive)
- GI50 (OVCAR-3): > 100 µM (inactive)
- GI50 (U-251): > 100 µM (inactive)
- GI50 (M19-MEL): > 100 µM (inactive)
- GI50 (OVCAR-4): > 100 µM (inactive)
- GI50 (NCI-H226): > 100 µM (inactive)
- GI50 (HT-29): > 100 µM (inactive)
- GI50 (SN12C): > 100 µM (inactive)
- GI50 (LXFL 529): > 100 µM (inactive)
- GI50 (CAKI-1): > 100 µM (inactive)
- GI50 (KM12): > 100 µM (inactive)
- GI50 (K562): > 100 µM (inactive)
- GI50 (UACC-62): > 100 µM (inactive)
- GI50 (SNB-78): > 100 µM (inactive)
- GI50 (OVCAR-8): > 100 µM (inactive)
- GI50 (XF498): > 100 µM (inactive)
- GI50 (HOP-92): > 100 µM (inactive)
- GI50 (HCT-116): > 100 µM (inactive)
- GI50 (SNB-19): > 100 µM (inactive)
- GI50 (HOP-18): > 100 µM (inactive)
- GI50 (IGROV-1): > 100 µM (inactive)
- GI50 (COLO 205): > 100 µM (inactive)
- GI50 (SR): > 100 µM (inactive)
- GI50 (HOP-62): > 100 µM (inactive)
- GI50 (KM-20L2): > 100 µM (inactive)
- GI50 (SK-OV-3): > 100 µM (inactive)
- GI50 (M14): > 100 µM (inactive)
- GI50 (786-0): > 100 µM (inactive)
- GI50 (CCRF-CEM): > 100 µM (inactive)
- GI50 (SF-295): > 100 µM (inactive)
- GI50 (ACHN): > 100 µM (inactive)

Compound: Nn1c(S)nnc1N/N=C1/C(=O)Nc2ccccc21
- GI50 (A498): 92.3 µM (inactive)
- GI50 (A549): 83.2 µM (inactive)
- GI50 (SF-539): 94 µM (inactive)
- GI50 (RXF 393): 27.7 µM (inactive)
- GI50 (NCI-H23): 16.9 µM (inactive)
- GI50 (SF-268): 56 µM (inactive)
- GI50 (OVCAR-5): > 100 µM (inactive)
- GI50 (EKVX): > 100 µM (inactive)
- GI50 (SK-MEL-2): > 100 µM (inactive)
- GI50 (NCI-H460): 54.7 µM (inactive)
- GI50 (MOLT-4): 30.7 µM (inactive)
- GI50 (HL-60): 94.4 µM (inactive)
- GI50 (HCC 2998): > 100 µM (inactive)
- GI50 (RPMI-8226): 63.2 µM (inactive)
- GI50 (NCI-H522): 44.9 µM (inactive)
- GI50 (SK-MEL-28): 33.7 µM (inactive)
- GI50 (DLD-1): 48.9 µM (inactive)
- GI50 (UACC-257): > 100 µM (inactive)
- GI50 (TK-10): > 100 µM (inactive)
- GI50 (SW-620): 78.2 µM (inactive)
- GI50 (UO-31): 47 µM (inactive)
- GI50 (LOX IMVI): 35.4 µM (inactive)
- GI50 (OVCAR-3): 80.4 µM (inactive)
- GI50 (DMS-114): > 100 µM (inactive)
- GI50 (U-251): 58.3 µM (inactive)
- GI50 (M19-MEL): > 100 µM (inactive)
- GI50 (OVCAR-4): 42.1 µM (inactive)
- GI50 (NCI-H226): 42.1 µM (inactive)
- GI50 (HT-29): > 100 µM (inactive)
- GI50 (SN12C): 50.6 µM (inactive)
- GI50 (LXFL 529): 39.5 µM (inactive)
- GI50 (CAKI-1): 52.6 µM (inactive)
- GI50 (KM12): 92.3 µM (inactive)
- GI50 (K562): 59 µM (inactive)
- GI50 (UACC-62): 71.8 µM (inactive)
- GI50 (SNB-78): > 100 µM (inactive)
- GI50 (OVCAR-8): 49.5 µM (inactive)
- GI50 (XF498): 37.9 µM (inactive)
- GI50 (HCT-15): 57.7 µM
- GI50 (HOP-92): 56.1 µM (inactive)
- GI50 (HCT-116): 53.1 µM (inactive)
- GI50 (Malme-3M): > 100 µM (inactive)
- GI50 (SNB-19): 55.2 µM (inactive)
- GI50 (HOP-18): 70.5 µM (inactive)
- GI50 (IGROV-1): 59.2 µM (inactive)
- GI50 (COLO 205): > 100 µM (inactive)
- GI50 (SR): 39.6 µM (inactive)
- GI50 (HOP-62): 64.9 µM (inactive)
- GI50 (KM-20L2): > 100 µM (inactive)
- GI50 (SK-OV-3): 43.7 µM (inactive)
- GI50 (M14): 62.1 µM (inactive)
- GI50 (786-0): > 100 µM (inactive)
- GI50 (CCRF-CEM): 47.3 µM (inactive)
- GI50 (SF-295): 82.8 µM (inactive)
- GI50 (ACHN): 83.8 µM (inactive)
